Values quoted from earlier work in US20240238196A1 (Shilpa Medicare Limited, priority 2021, published 2024).

O=C(NC[C@H]1CN(c2ccc(N3CCOCC3=O)cc2)C(=O)O1)c1ccc(Cl)s1 [Rivaroxaban, 5-Chloro-N-({(5S)-2-oxo-3-[4-(3-oxo-4-morpholinyl)phenyl]-1,3-oxazolidin5-yl}methyl)-2-thiophenecarboxamide]
Solubility in organic solvents (organic solvents, slightly soluble, according to CHMP assessment report for Xarelto): 1000 to 10000 µg/mL
Solubility in water (in words) (water): practically insoluble
